Assay results as given in EP1991554B1, “THIOPYR[…] COMPOUNDS, METHOD FOR PREPARING THEREOF AND COMPOSITIONS CONTAINING THEM” (C4T S.C. a.r.l., priority 2006, dated 2007).
Where a name gives a salt, the structure may show the parent alone.

What was measured:
[1] = tested on: γδ T lymphocytes of peripheral blood mononucleate cells (PBMCs); assay: Cytokine production assay on peripheral blood mononucleate cells (PBMCs), cytofluorimetry; type: cell-based, human; details: for activation at 10 µM / activation at 100 µM / activation at 1000 µM: Homo sapiens, PBMC, read-out: % increase in γδ T lymphocytes producing TNFα; for % increase in γδ T lymphocytes producing INFγ: IPP (10 µM) std = 100
Protocol: γδ T lymphocyte activation was tested by an assay involving the production of cytokines such as TNFα and IFNγ by the γδ T lymphocytes of peripheral blood mononucleate cells (PBMCs) from healthy donors (Poccia, F. et al., The Journal of Immunology 1997, 159, 6009-6017).
Mononucleate cells (PBMCs) were isolated from the peripheral blood of healthy donors, cultured at 37°C on a complete medium comprising RPMI 1640, 10% FCS, 1% L-glutamine, 1% penicillin-streptomycin in the presence of interleukin 2 (IL-2), T lymphocyte growth factor, and 5% CO2 in a controlled humidity environment, and then stimulated with isopentenyl pyrophosphate (IPP 10 µM) as a positive activation control and with various doses (10 µM, 100 µM) and 1000 µM) of compounds according to the invention, respectively.
Then it was performed a cytofluorimetric labelling using specific monoclonal antibodies (membrane labelling for the expansion and intra-cytoplasm labelling for the cytokines) and a cytofluorimetric measurement in order to establish the percentage of γδ T cells producing TNFα and IFNγ (cytokine production assay).

γδ T lymphocyte line = assay: ELISA test for the production of TNFα in the γδ T lymphocyte line; type: cell-based, human; details: for EC50: Homo sapiens, T-lymphocyte, 24 h
Protocol: A buffy coat from a healthy donor with a high basal percentage of γδ T lymphocytes (approximately 6%) was selected for growth of the γδ T lymphocyte lines.
The PBMCs were separated out and cultured at a concentration of 1 x 10^6 cells/ml in the presence of IPP (160 ng/ml) and IL-2 (100 U/ml).
After 7 days incubation at 37°C with 5% CO2, 3 ml of medium were sampled and replaced with the same amount of fresh medium ennched with IL-2 (final concentration 100 U/ml).
After a further 7 days in the incubator an aliquot of the cultured cells was taken to label the membrane and measure the percentage of γδ T cells obtained from the expansion.
This cell line was then used to evaluate the production of TNFα following stimulation of the cells with the compounds under investigation, using an ELISA test.
In the ELISA test there were used cells from the line produced as disclosed above in a concentration of 2.5 x 10^5 cells/ml (5 x 10^4 cells/well).
The cells were then stimulated with the compounds under investigation and with isopentenyl pyrophosphate (IPP) as a reference at scalar doses.
After 24 hours the supernatants from the wells containing the stimulated cells were sampled and the ELISA test was carried out using the "Human TNFα Screening Set" kit (Endogen). The kit provides for treatment with an anti-TNFα biotinylate polyclonal antibody, the addition of peroxidase conjugated with streptavidine and quantitative determination using a chromogenic substrate. The plates were read spectrophotometrically at 450 nm.
Each compound was tested in duplicate.

alkaline phosphatase = assay: Stability test in alkaline aqueous solution in the presence of alkaline phosphatase (enzyme hydrolysis), HPLC-MS; details: for resistance to hydrolysis: in words, summary of Table 1; for Percentage of non-hydrolysed compound: 2 mM, pH 8 TRIS-HCl buffer, alkaline phosphatase, ambient temperature
Protocol: The following compounds were selected for the stability tests in alkaline aqueous solution in the presence of alkaline phosphatase (SIGMA Phosphatase, alkaline-Agarose from calf intestine-P0762): [drawing 25] • Solution A: • pH 8 solution: TRIS-HCl buffer and 2 mM of MgCl2; • Solution B: • comparison versus solution A: 2 mM isopentenyl pyrophosphate (IPP) solution; • Solution C: • 2 mM isopentenyl thiopyrophosphate solution (Compound 8) of this invention into Solution A, • Solution D: • Solution of phosphatase enzyme immobilised on a solid substrate (agarose), 50 biological units into 10 ml of Solution A.
20 µl of Solution D were added to 0.5 ml of Solution B. The system was allowed to stand at ambient temperature under stirring. The solution was filtered to remove the enzyme and it was then analysed with HPLC-MS at predetermined time intervals (20, 30, 40, 50 and 60 minutes).
The same procedure was carried out with Solution C.

Vγ9Vδ2 cells = assay: Peripheral blood mononucleate cell (PBMC) cellular expansion assay; type: cell-based, human; details: tenth day of culture
Protocol: The effect of the compounds of this invention on the expansion of γδ T lymphocytes was investigated through an assay carried out on γδ T lymphocytes originating from the peripheral blood mononucleate cells from healthy donors (PBMCs).
The PBMCs were separated by centrifuging (Ficoll) on whole blood from samples (residual samples) from 7 healthy donors.
In control experiments the cells were treated with IPP at the same concentrations and under the same Experimental conditions.
On the tenth day of culture the cells were recovered and counted by means of a living count with Trypan Blue, and labelled with the same anti-Vd2-FITC antibody, and finally tested by cytofluorimetry to evaluate the percentage of Vγ9Vδ2 cells.
The absolute number of Vγ9Vδ2 cells was calculated using the following formula: No. of Vγ9Vδ2 cells = (total absolute no.of cells after expansion x%of Vγ9Vδ2cells after expansion)/100. [formula]

Row | SMILES | activation at 10 µM [1] [%] | activation at 100 µM [1] [%] | activation at 1000 µM [1] [%] | % increase in γδ T lymphocytes producing INFγ ([1]; PBMC/IL-2, 10 µM) [%] | % increase in γδ T lymphocytes producing INFγ ([1]; PBMC/IL-2, 100 µM) [%] | % increase in γδ T lymphocytes producing INFγ ([1]; PBMC/IL-2, 1000 µM) [%] | EC50 (γδ T lymphocyte line) [µM] | also measured
1 | O=P(O)(O)OP(=O)(O)SCCCCCl [Compound 1, S-(4-chlorobutyl) ester of the trisodium salt of thiodiphosphoric acid] | 81 | 127 | 81.5 | 131 | 94 | 132 | 100 | 
2 | O=P(O)(O)OP(=O)(O)SCCOCCCl [Compound 2, S-[2-(2-chloroethoxy)ethyl] ester of the trisodium salt of thiodiphosphoric acid] | 60.4 | 71.8 | 765 | 56.4 | 67 | 97.3 | 0.39 | 
3 | O=P(O)(O)OP(=O)(O)SCCC1CC1 [Compound 3, S-(2-cyclopropylethyl)ester of the trisodium salt of thiodiphosphoric acid] | 495 | 123 | 158 |  |  |  | 13 | 
4 | C=CCOCCSP(=O)(O)OP(=O)(O)O [Compound 4, S-[2-(allyloxy)ethyl]ester of the trisodium salt of thiodiphosphoric acid] | 70.7 | 130 | 299 |  |  |  | 10 | 
5 | C[C@H](O)CCSP(=O)(O)OP(=O)(O)O [Compound 6, S-(3-hydroxybutyl)ester of the trisodium salt of biodiphosphoric acid] | 40 | 114 | 310 |  |  |  | 75 | 
6 | C=C(C)CCSP(=O)(O)OP(=O)(O)O [Compound 8, S-(3-methyl-3-butenyl)ester of the triammonium salt of thiodiphosphoric acid] | 39 | 92.6 | 174 | 21 | 865 | 182 | 3.75 | resistance to hydrolysis (alkaline phosphatase): very much more resistant to hydrolysis; Percentage of non-hydrolysed compound (alkaline phosphatase; t = 0 min): 100%; Percentage of non-hydrolysed compound (alkaline phosphatase; t = 20 min): 90%; Percentage of non-hydrolysed compound (alkaline phosphatase; t = 30 min): 90%; Percentage of non-hydrolysed compound (alkaline phosphatase; t = 40 min): 90%; Percentage of non-hydrolysed compound (alkaline phosphatase; t = 50 min): 90%; Percentage of non-hydrolysed compound (alkaline phosphatase; t = 60 min): 90%
7 | C/C(=C\CSP(=O)(O)OP(=O)(O)O)CO [Compound 9, S-[(E)-4-hydroxy-3-methyl-2-butenyl]ester of the trisodium salt of thiodiphosphoric acid] | 82.3 | 175 | 464 |  |  |  | 0.0048 | activity (γδ T cells producing cytokines) ([1]; in words, at 100 and 1000 µM): a very clear increase; EC50 relative to the EC50 for IPP (γδ T lymphocyte line; production of TNFα, γδ T lymphocyte line): 1000 times; Expansion Index (Vγ9Vδ2 cells; Donor A): 129.28; Expansion Index (Vγ9Vδ2 cells; Donor B): 80.96; Expansion Index (Vγ9Vδ2 cells; Donor C): 5.30; Expansion Index (Vγ9Vδ2 cells; Donor D): 59.10; Expansion Index (Vγ9Vδ2 cells; Donor E): 624.02; Expansion Index (Vγ9Vδ2 cells; Donor F): 35.37; Expansion Index (Vγ9Vδ2 cells; Donor G): 42.09
8 | C=C(C)CCO[P@@](=O)(O)OP(=O)(O)O [IPP, isopentenyl pyrophosphate, reference compound] | 100 |  |  | 100 |  |  |  | resistance to hydrolysis (alkaline phosphatase): degrades rapidly; Percentage of non-hydrolysed compound (alkaline phosphatase; t = 0 min): 94%; Percentage of non-hydrolysed compound (alkaline phosphatase; t = 20 min): 48%; Percentage of non-hydrolysed compound (alkaline phosphatase; t = 30 min): 54%; Percentage of non-hydrolysed compound (alkaline phosphatase; t = 60 min): 27%
